Source: ChEMBL document CHEMBL1134234, “NO-independent stimulators of soluble guanylate cyclase” (Bioorg Med Chem Lett, 2001)

Organism: Oryctolagus cuniculus
Experiment: (§1) Ability to inhibit maximum constriction of phenylephrine-treated precontracted (3x10 -8 g/mL) rabbit aortic rings
Type: functional
Settings: Aorta

Compound	IC50
Nc1nc(-c2nn(Cc3ccccc3F)c3ncccc23)ncc1C1=CCCC1	0.836 µM
Fc1ccccc1Cn1nc(C2=NCCN2)c2cccnc21	3.2 µM
OCc1ccc(-c2nn(Cc3cccc(F)c3)c3ccccc23)o1	10 µM
CCCCCc1cnc(-c2nn(Cc3ccccc3F)c3ncccc23)nc1N	200 µM
Fc1ccccc1Cn1nc(-c2ccco2)c2cccnc21	9.3 µM
OCc1ccc(-c2nn(Cc3cccnc3)c3ccccc23)o1	9.6 µM
N#Cc1cnc(-c2nn(Cc3ccccc3F)c3ncccc23)nc1N	391 µM
CCc1cnc(-c2nn(Cc3ccccc3F)c3ncccc23)nc1N	272 µM
OCc1ccc(-c2nn(Cc3ccc(F)cc3)c3ccccc23)o1	19 µM
CCOP(=O)(OCC)c1cnc(-c2nn(Cc3ccccc3F)c3ncccc23)nc1N	414 µM
OCc1ccc(-c2nn(Cc3c(F)cccc3F)c3ccccc23)o1	15 µM
N#Cc1ccccc1Cn1nc(-c2ccc(CO)o2)c2ccccc21	8.7 µM
Cc1cc(N)nc(-c2nn(Cc3ccccc3F)c3ncccc23)n1	536 µM
Fc1ccccc1Cn1nc(-c2nn[nH]n2)c2cccnc21	8.6 µM
Nc1nc(-c2nn(Cc3ccccc3F)c3ncccc23)ncc1N1CCSCC1	650 µM
CSc1cnc(-c2nn(Cc3ccccc3F)c3ncccc23)nc1N	243 µM

Compound	IC50
Fc1ccccc1Cn1nc(-c2ccccn2)c2cccnc21	4.8 µM
Nc1nc(-c2nn(Cc3ccccc3F)c3ncccc23)ncc1N1CCOCC1	306 µM
CS(=O)(=O)c1cnc(-c2nn(Cc3ccccc3F)c3ncccc23)nc1N	261 µM
N#CCCCCCc1cnc(-c2nn(Cc3ccccc3F)c3ncccc23)nc1N	588 µM
NS(=O)(=O)c1ccc(-c2nn(Cc3ccccc3F)c3ncccc23)o1	8 µM
CCCc1cnc(-c2nn(Cc3ccccc3F)c3ncccc23)nc1N	252 µM
OCc1ccc(-c2nn(Cc3ccccn3)c3ccccc23)o1	16 µM
Cc1cnc(-c2nn(Cc3ccccc3F)c3ncccc23)nc1N	675 µM
CC(C)S(=O)(=O)c1cnc(-c2nn(Cc3ccccc3F)c3ncccc23)nc1N	517 µM
OCc1ccnc(-c2nn(Cc3ccccc3F)c3ncccc23)n1	1.3 µM
Nc1nc(-c2nn(Cc3ccccc3F)c3ncccc23)nc(N)c1C1CC1	233 µM
CCCCc1cnc(-c2nn(Cc3ccccc3F)c3ncccc23)nc1N	218 µM
CC(C)c1cnc(-c2nn(Cc3ccccc3F)c3ncccc23)nc1N	207 µM
Nc1nc(-c2nn(Cc3ccccc3F)c3ncccc23)ncc1C1CCCCC1	561 µM
Cc1coc(-c2nn(Cc3ccccc3F)c3ncccc23)n1	1.2 µM
CCCS(=O)(=O)c1cnc(-c2nn(Cc3ccccc3F)c3ncccc23)nc1N	378 µM

Further lines, results first:

IC50	Compound
0.904 µM	Nc1nc(-c2nn(Cc3ccccc3F)c3ncccc23)ncc1C1CCCC1
9.8 µM	OCc1ccc(-c2nn(Cc3ccccc3F)c3ccncc23)o1
1.25 µM	Fc1ccccc1Cn1nc(-c2ncccn2)c2cccnc21
1.8 µM	Fc1ccccc1Cn1nc(-c2cc[nH]n2)c2cccnc21
478 µM	Nc1nc(-c2nn(Cc3ccccc3F)c3ncccc23)ncc1F
1290 µM	CC(C#N)CCCCCc1cnc(-c2nn(Cc3ccccc3F)c3ncccc23)nc1N (centres undefined)
9.4 µM	OCc1ccc(-c2nn(Cc3ccccc3F)c3ncncc23)o1
0.9 µM	Cc1nc(-c2nn(Cc3ccccc3F)c3ncccc23)oc1CO
0.709 µM	CC(C)(C)c1cnc(-c2nn(Cc3ccccc3F)c3ncccc23)nc1N
508 µM	Nc1nc(-c2nn(Cc3ccccc3F)c3ncccc23)ncc1CC(F)(F)F
304 µM	Nc1nc(-c2nn(Cc3ccccc3F)c3ncccc23)ncc1C1CC1
20.4 µM	OCc1ccc(-c2nn(Cc3ccccc3F)c3cccnc23)o1
1.4 µM	NCc1cnc(-c2nn(Cc3ccccc3F)c3ncccc23)nc1N
10 µM	OCc1ccc(-c2nn(Cc3ccccc3)c3ccccc23)o1
4.9 µM	OCc1ccc(-c2nn(Cc3ccccc3F)c3ccccc23)o1
0.6 µM	CCc1c[nH]c(-c2nn(Cc3ccccc3F)c3ncccc23)n1
1.5 µM	Cc1oc(-c2nn(Cc3ccccc3F)c3ncccc23)nc1CO
412 µM	N#CCCc1cnc(-c2nn(Cc3ccccc3F)c3ncccc23)nc1N
633 µM	Nc1nc(-c2nn(Cc3ccccc3F)c3ncccc23)ncc1C1CCC1
3.2 µM	OCc1ccc(-c2nn(Cc3cncnc3)c3ccccc23)o1
1.7 µM	OCc1ccc(-c2nn(Cc3ccccc3F)c3ncccc23)o1
1.04 µM	CCCCCCc1cnc(-c2nn(Cc3ccccc3F)c3ncccc23)nc1N
26 µM	N#Cc1cccc(Cn2nc(-c3ccc(CO)o3)c3ccccc32)c1
6.93 µM	OCc1ccc(-c2nn(Cc3ccccc3F)c3cnccc23)o1
343 µM	COc1cnc(-c2nn(Cc3ccccc3F)c3ncccc23)nc1N
7.2 µM	OCc1ccc(-c2nn(Cc3ccc(Cl)s3)c3ccccc23)o1

Organism: Oryctolagus cuniculus
Experiment: as §1
Type: functional, Aorta
Settings: not given

Compound	Inhibition
OCc1ccc(-c2nn(Cc3ccccc3F)c3cccnc23)o1	27%
